In patent US10913714B2, “Pyrrole sulfonyl derivative, preparation method and medical use thereof” (JIANGSU CAREPHAR PHARMACEUTICAL CO., LTD, priority 2015, dated 2021):
Counter-ions that a name gives are not always drawn. Marks after values point to notes of the source that are not given here.

System: gastric acid secretion induced by histamine
Experiment: Gastric acid secretion induced by histamine in pylorus-ligated rats
Format: in vivo
Conditions: SD rat; for Total acid content: 2 mg/kg by gavage 1 h before histamine, total acid of 3 h; for Acid inhibiting rate %: 2 mg/kg by gavage, compared with model control
Excerpt: Test Case 3: Studies on the Effect of EXP 1, TAK-438 and EXP 14 on Gastric Acid Secretion Induced by Histamine Experimental Materials 1) Animals
SD rat, class SPF, male, 180-220 g; provided by Zhejiang Experimental Animal Center; production permit no.: SCXK (Z) 2014-0001.
Compound EXP 1, dissolved with a small amount of acetic acid (about 1.10N EXP 1), 0.9% sodium chloride solution to a clear liquid with needed concentration before use.
>Compound TAK-438, dissolved with 0.9% sodium chloride solution to a clear liquid with needed concentration before use.
Compound EXP 14, dissolved with a small amount of acetic acid (about 1.10N EXP 14), 0.9% sodium chloride solution to a clear liquid with needed concentration before use.
Fetching 60 SD rats of class SPF with a weight of 180-220 g; dividing the rats into 5 groups as per weights randomly, including Group EXP 1 (2 mg/kg), Group TAK-438 (2 mg/kg, as per free alkali), Group EXP 14 (2 mg/kg), Group negative control (normal saline of equal volume) and Group model control (normal saline of equal volume); 12 rats per group. Absolute diet for 24 h, water is allowed. After 24 h, administrating drugs to the tested compound groups A, B and C by gavage with a volume of 1 ml/100 g; each group is administered once; the negative control and model negative control groups are administrated by gavage with normal saline of equal volume. Narcotizing the rat with 300 mg/kg of chloral hydrate (1 ml/100 g) and fixing it onto the rat board; cutting to open the abdominal wall along the medioventral line from the mucronate cartilage with an incision of 2-3 cm; slightly pushing the left costal margin upward to expose the stomach in the incision. Ligaturing the pylorus thereunder (leave alone the adjacent blood vessels) and then suturing the abdominal incision. Giving histamine dihydrochloride (30 mg/10 m/kg) hypodermically to the rat 1 h after the tested compound or normal saline are administrated. Choking the rat to death with excessive CO2 3 h after the histamine is given; taking out the stomach and collecting the gastric contents for centrifugation at 3000 rpm/min; adjusting the PH value of the acid fluid to 7.0 with 0.1 mol/L of NaOH titration and then calculating the total acid content of the 3 h. Refer to Table 3 for results.

SMILES | Total acid content | Acid inhibiting rate %
CNCc1cc(-c2ccccc2F)n(S(=O)(=O)c2cccc(OCCCOC)c2)c1 [EXP 1, 1-(5-(2-fluorobenzene)-1-((3-(3-methoxypropoxy)phenyl)sulfonyl)-1H-pyrrole-3-yl)-N-methyl methylamine] | 0.49 ± 0.12** 10^−4 mol | 55.4%
CNCc1cc(-c2ccccc2F)n(S(=O)(=O)c2cccnc2)c1 [TAK-438, 5-(2-fluorophenyl)-N-methyl-1-(3-pyridylsulfonyl)-1H-pyrrole-3-methamine fumarate] | 0.52 ± 0.10** 10^−4 mol | 52.3%
